In patent US20210292851A1, “METHOD OF MONITORING EFFECTIVENESS OF IMMUNOTHERAPY OF CANCER PATIENTS” (Roche Sequencing Solutions, Inc., priority 2018, published 2021):

Experiments:
[1] = tested on: advanced NSCLC patients; assay: Phase 3 randomized trial, Atezolizumab vs docetaxel in second line advanced NSCLC: progression-free survival by baseline ctDNA mutation metric; assay type: in vivo, human; details: for Events/Total number of patients: PFS events
Source text: In a Phase 3, open-label, multicenter randomized controlled trial, NSCLC patients received either Atezolizumab or docetaxel in a second line setting of advanced NSCLC. Blood plasma samples were obtained from 102 patients prior to start of second line therapy. The AVENIO® ctDNA kit, Surveillance Panel (Roche Sequencing Solutions, Pleasanton, Calif.) was used to assess the number of mutations in patient samples. Cell-free DNA (cfDNA) from the patients was isolated and analyzed according to the manufacturer's instructions of the AVENIO® ctDNA Kit. The metrics assessed included the numbers of variants and maximum allele frequency (MaxAF, the highest allele frequency of a single mutation among all mutations detected within a single sample).
The “number of mutations” metric was assessed on the population level and patients were assessed for progression-free survival (PFS) and overall survival (OS). (FIGS. 1 and 2, Tables 2 and 3) Using median or 75th percentile cut-off, patients treated with Atezolizumab and with number of mutations greater or equal median or 75th percentile have longer progression survival compared to that of chemotherapy, with a HR of 0.67 or 0.49, respectively. Meanwhile, Atezolizumab didn't show more benefit vs chemotherapy in patients with number of mutations fewer than the median or 75th percentile. The HR is 1.12 and 1.05 for <median or <75 percentile, respectively.
The MaxAF detected in the blood samples was also used to assess its relationship with progression free survival and overall survival. Using median cut-off, patients with MaxAF greater than the median have longer progression free survival when treated with Atezolizumab compared to chemotherapy, with a HR of 0.56 (FIG. 3, Table 4). In patients with MaxAF lesser the median, no benefit was observed on treatment with Atezolizumab vs chemotherapy (HR of 1.45).

[2] = tested on: NSCLC patients; assay: Same Phase 3 trial with serial ctDNA monitoring: overall survival by maxMMPM at C3D1; assay type: in vivo, human
Procedure: In this example, the patients' samples from the same Phase 3 trial as described in Example 1 were collected processed an analyzed essentially as described in Example 1. However, the samples were collected serially during the administration of therapy.
Multiple metrics of circulating tumor DNA (ctDNA) were assessed for association with OS.
Plasma from 94 patients taken at baseline and at subsequent cycles of therapy every three weeks (C2D1, C3D1, and C4D1) were analyzed retrospectively for ctDNA with the AVENIO ctDNA Surveillance Kit (Roche Sequencing Solutions, Pleasanton, Calif.) Mutations detected in matched PBMC DNA were excluded in correlation analyses with clinical outcomes. ctDNA was measured by allele frequency (AF) or mutant molecules per milliliter (MMPM), and summarized across multiple mutations within a sample by median, mean or maximum. Concordance between these per-sample metrics and PFS/OS were assessed using C index, which is equivalent to AUC under a Receiver Operating Characteristic (ROC) curve.
Specifically, samples were collected and assessed at drug administration cycle 1, 2, or 3 or 4 taken in each case, on day 1 (C1D1, C2D1, C3D1, and C4D1). […] Using the max MMPM at C3D1, the patients were dichotomized at a median for the entire cohort of 8.75 maximal MMPM. […] In the docetaxel arm, the 1-year survival rate among MMPM low vs MMPM high patients was 0.7 vs 0.07. Because mutation metrics obtained from overall ctDNA levels were associated with OS in metastatic NSCLC, ctDNA is a promising non-invasive blood based biomarker in the metastatic setting of NSCLC.

[3] = tested on: NSCLC patients; details: ≥2L NSCLC patients; previously demonstrated by the study; cited from earlier work
[4] = number of detected variants <75th percentile (<12)
[5] = number of detected variants <Median (<6.5)
[6] = number of detected variants ≥75th percentile (≥12)
[7] = number of detected variants ≥Median (≥6.5)
[8] = patients with MaxAF <Median (<44.58) at baseline
[9] = patients with MaxAF ≥Median (≥44.58) at baseline
[10] = patients with number of detected variants <75th percentile (<12) at baseline
[11] = patients with number of detected variants <Median (<6.5) at baseline
[12] = patients with number of detected variants ≥75th percentile (≥12) at baseline
[13] = patients with number of detected variants ≥Median (≥6.5) at baseline
[14] = MMPM high patients (max MMPM at C3D1, dichotomized at median 8.75)
[15] = MMPM low patients (max MMPM at C3D1, dichotomized at median 8.75)

Row | Molecule | Events/Total number of patients ([1]; MaxAF <Median (<44.58)) | Events/Total number of patients ([1]; MaxAF ≥Median (≥44.58)) | Events/Total number of patients [1, 4] | Events/Total number of patients [1, 5] | Events/Total number of patients [1, 6] | Events/Total number of patients [1, 7] | Median Progression Free Survival [1, 8] | Median Progression Free Survival [1, 9] | Median Progression Free Survival [1, 10] | Median Progression Free Survival [1, 11] | Median Progression Free Survival [1, 12] | Median Progression Free Survival [1, 13] | 1-year survival rate (OS) [2, 14] | 1-year survival rate (OS) [2, 15] | further results
1 | CC(=O)O[C@@]12CO[C@@H]1C[C@H](O)[C@@]1(C)C(=O)[C@H](O)C3=C(C)[C@@H](OC(=O)[C@H](O)[C@@H](NC(=O)OC(C)(C)C)c4ccccc4)C[C@@](O)([C@@H](OC(=O)c4ccccc4)[C@H]21)C3(C)C [Docetaxel, docetaxel] | 27/28 | 23/23 | 37/37 | 27/27 | 13/14 | 23/24 | 4.09 | 3.09 | 4.07 | 3.98 | 2.41 | 2.94 | 0.07 | 0.7 | 
2 | atezolizumab | 22/23 | 24/28 | 35/38 | 23/24 | 11/13 | 23/27 | 2.6 | 4.99 | 2.71 | 2.74 | 5.85 | 2.79 | 0.43 | 0.81 | Hazard Ratio (HR), progression free survival, Atezolizumab vs docetaxel ([1]; MaxAF <Median (<44.58)): 1.45; Hazard Ratio (HR), progression free survival, Atezolizumab vs docetaxel ([1]; MaxAF ≥Median (≥44.58)): 0.56; Hazard Ratio (HR), progression free survival, Atezolizumab vs docetaxel [1, 4]: 1.05; Hazard Ratio (HR), progression free survival, Atezolizumab vs docetaxel [1, 5]: 1.12; Hazard Ratio (HR), progression free survival, Atezolizumab vs docetaxel [1, 6]: 0.49; Hazard Ratio (HR), progression free survival, Atezolizumab vs docetaxel [1, 7]: 0.67; OS benefit, atezolizumab vs docetaxel [3]: clinically significant OS benefit
